Measured values from patent publication US20240057606A1, “MOLECULES HAVING CERTAIN PESTICIDAL UTILITIES, AND INTERMEDIATES, COMPOSITIONS, AND PROCESSES RELATED THERETO” (priority 2020, published 2024).

Legend:
Format in all cases: in vivo
[1] = test system: Beet Armyworm (Spodoptera exigua, "BAW"); assay: Bioassay on beet armyworm, 128-well diet tray assay; details: 168 h, 50 μg/cm^2 of test compound on artificial diet, second instar larvae, 25° C., five to seven days, average of eight wells, read-out: BAW % Control (or Mortality) rating
Method: (§1) Bioassays on Beet Armyworm (Spodoptera exigua, “BAW”) and Cabbage Looper (Trichoplusia ni, “CL”)
(§2) Certain molecules disclosed in this document were tested against BAW and CL using procedures described in the following examples. In the reporting of the results, the “BAW & CL Rating Table” was used (See Table Section).
Bioassays on BAW were conducted using a 128-well diet tray assay. one to five second instar BAW larvae were placed in each well (3 mL) of the diet tray that had been previously filled with 1 mL of artificial diet to which 50 μg/cm^2 of the test compound (dissolved in 50 μL of 90:10 acetone-water mixture) had been applied (to each of eight wells) and then allowed to dry. Trays were covered with a clear self-adhesive cover and held at 25° C., 14:10 light-dark cycle for five to seven days. Percent mortality was recorded for the larvae in each well; activity in the eight wells was then averaged. The results are indicated in the table entitled “Table ABC: Biological Results” (See Table Section).

[2] = test system: Cabbage Looper (Trichoplusia ni, "CL"); assay: Bioassay on cabbage looper, 128-well diet tray assay; details: 168 h, 50 μg/cm^2 of test compound on artificial diet, second instar larvae, 25° C., five to seven days, average of eight wells, read-out: CL % Control (or Mortality) rating
Method: as §1, §2
Bioassays on CL were conducted using a 128-well diet tray assay. one to five second instar CL larvae were placed in each well (3 mL) of the diet tray that had been previously filled with 1 mL of artificial diet to which 50 μg/cm^2 of the test compound (dissolved in 50 μL of 90:10 acetone-water mixture) had been applied (to each of eight wells) and then allowed to dry. Trays were covered with a clear self-adhesive cover and held at 25° C., 14:10 light-dark cycle for five to seven days. Percent mortality was recorded for the larvae in each well; activity in the eight wells was then averaged. The results are indicated in the table entitled “Table ABC: Biological Results” (See Table Section).

[3] = test system: Yellow Fever Mosquito (Aedes aegypti, "YFM"); assay: Bioassay on yellow fever mosquito larvae, 96-well plate assay; details: 4000 ppm DMSO master solution diluted with 90:10 water:acetone; about 1 day-old larvae; room temperature; scored after 3 days
Method: Bioassays On Yellow Fever Mosquito (Aedes aegypti, “YFM”)
Certain molecules disclosed in this document were tested against YFM using procedures described in the following paragraph. In the reporting of the results, the “YFM Rating Table” was used (See Table Section).
Master plates containing 400 μg of a molecule dissolved in 100 μL of dimethyl sulfoxide (DMSO) (equivalent to a 4000 ppm solution) are used. A master plate of assembled molecules contains 15 μL per well. To this plate, 135 μL of a 90:10 water:acetone mixture is added to each well. A robot (Biomek® NXP Laboratory Automation Workstation) is programmed to dispense 15 μL aspirations from the master plate into an empty 96-well shallow plate (“daughter” plate). There are 6 reps (“daughter” plates) created per master. The created daughter plates are then immediately infested with YFM larvae.
The day before plates are to be treated, mosquito eggs are placed in Millipore water containing liver powder to begin hatching (4 g. into 400 mL). After the daughter plates are created using the robot, they are infested with 220 μL of the liver powder/larval mosquito mixture (about 1 day-old larvae). After plates are infested with mosquito larvae, a non-evaporative lid is used to cover the plate to reduce drying. Plates are held at room temperature for 3 days prior to grading. After 3 days, each well is observed and scored based on mortality.

| SMILES | mortality at 50 µg/cm2 [1] [%] | mortality at 50 µg/cm2 [2] [%] | YFM % Control (or Mortality) rating [3] |
| --- | --- | --- | --- |
| Cc1cc(-c2ncn(-c3ccc(OC(F)(F)F)cc3)n2)ccc1NC(=O)/N=C1\SCC(=O)N1c1cc2c(cc1COCC(F)(F)F)OCO2 [F1] | 50 to 100 | 50 to 100 | – |
| O=C(/N=C1\SCC(=O)N1c1cc2c(cc1COCC(F)(F)F)OCO2)Nc1ccc(-c2ncn(-c3ccc(OC(F)(F)F)cc3)n2)cc1F [F2, (Z)-1-(2-Fluoro-4-(1-(4-(trifluoromethoxy)phenyl)-1H-1,2,4-triazol-3-yl)phenyl)-3-(4-oxo-3-(6-((2,2,2-trifluoroethoxy)methyl)benzo[d][1,3]dioxol-5-yl)thiazolidin-2-ylidene)urea] | 50 to 100 | 50 to 100 | – |
| O=C(/N=C1\SCC(=O)N1c1cc2c(cc1COCC(F)(F)F)OCO2)Nc1ccc(-c2ncn(-c3ccc(S(F)(F)(F)(F)F)cc3)n2)cc1F [F3, (Z)-1-(2-Fluoro-4-(1-(4-(pentafluoro-λ^6-sulfaneyl)phenyl)-1H-1,2,4-triazol-3-yl)phenyl)-3-(4-oxo-3-(6-((2,2,2-trifluoroethoxy)methyl)benzo[d][1,3]dioxol-5-yl)thiazolidin-2-ylidene)urea] | 50 to 100 | 50 to 100 | – |
| O=C(/N=C1\SCC(=O)N1c1cccc2occc12)Nc1ccc(-c2ncn(-c3ccc(OC(F)(F)F)cc3)n2)cc1F [F4, (Z)-1-(3-(Benzofuran-4-yl)-4-oxothiazolidin-2-ylidene)-3-(2-fluoro-4-(1-(4-(trifluoromethoxy)phenyl)-1H-1,2,4-triazol-3-yl)phenyl)urea] | 50 to 100 | 50 to 100 | – |
| O=C(/N=C1\SCC(=O)N1c1cccc2ccoc12)Nc1ccc(-c2ncn(-c3ccc(OC(F)(F)F)cc3)n2)cc1F [F5, (Z)-1-(3-(Benzofuran-7-yl)-4-oxothiazolidin-2-ylidene)-3-(2-fluoro-4-(1-(4-(trifluoromethoxy)phenyl)-1H-1,2,4-triazol-3-yl)phenyl)urea] | 50 to 100 | 50 to 100 | – |
| O=C(/N=C1\SCC(=O)N1c1cccc2ocnc12)Nc1ccc(-c2ncn(-c3ccc(OC(F)(F)F)cc3)n2)cc1F [F7, (Z)-1-(3-(Benzo[d]oxazol-4-yl)-4-oxothiazolidin-2-ylidene)-3-(2-fluoro-4-(1-(4-(trifluoromethoxy)phenyl)-1H-1,2,4-triazol-3-yl)phenyl)urea] | 50 to 100 | 50 to 100 | – |
| O=C(/N=C1\SCC(=O)N1c1cccc2c1COC2)Nc1ccc(-c2ncn(-c3ccc(OC(F)(F)F)cc3)n2)cc1F [F8, (Z)-1-(3-(1,3-Dihydroisobenzofuran-4-yl)-4-oxothiazolidin-2-ylidene)-3-(2-fluoro-4-(1-(4-(trifluoromethoxy)phenyl)-1H-1,2,4-triazol-3-yl)phenyl)urea] | 50 to 100 | 50 to 100 | – |
| O=C(/N=C1\SCC(=O)N1c1cccc2c1OCC2)Nc1ccc(-c2ncn(-c3ccc(OC(F)(F)F)cc3)n2)cc1F [F9, (Z)-1-(3-(2,3-Dihydrobenzofuran-7-yl)-4-oxothiazolidin-2-ylidene)-3-(2-fluoro-4-(1-(4-(trifluoromethoxy)phenyl)-1H-1,2,4-triazol-3-yl)phenyl)urea] | 50 to 100 | 50 to 100 | – |
| O=C(/N=C1\SCC(=O)N1c1cccc2c1CCC2)Nc1ccc(-c2ncn(-c3ccc(OC(F)(F)F)cc3)n2)cc1F [F10, (Z)-1-(3-(2,3-Dihydro-1H-inden-4-yl)-4-oxothiazolidin-2-ylidene)-3-(2-fluoro-4-(1-(4-(trifluoromethoxy)phenyl)-1H-1,2,4-triazol-3-yl)phenyl)urea] | 50 to 100 | 50 to 100 | – |
| O=C(/N=C1\SCC(=O)N1c1ccc2c(c1)C(=O)OC2=O)Nc1ccc(-c2ncn(-c3ccc(OC(F)(F)F)cc3)n2)cc1F [F11, (Z)-1-(3-(1,3-Dioxo-1,3-dihydroisobenzofuran-5-yl)-4-oxothiazolidin-2-ylidene)-3-(2-fluoro-4-(1-(4-(trifluoromethoxy)phenyl)-1H-1,2,4-triazol-3-yl)phenyl)urea] | 0 | 50 to 100 | – |
| CN1CCOc2c1cccc2N1C(=O)CS/C1=N\C(=O)Nc1ccc(-c2ncn(-c3ccc(OC(F)(F)F)cc3)n2)cc1F [F12, (Z)-1-(2-Fluoro-4-(1-(4-(trifluoromethoxy)phenyl)-1H-1,2,4-triazol-3-yl)phenyl)-3-(3-(4-methyl-3,4-dihydro-2H-benzo[b][1,4]oxazin-8-yl)-4-oxothiazolidin-2-ylidene)urea] | 50 to 100 | 50 to 100 | A (80-100) |
| O=C(/N=C1\SCC(=O)N1c1ccc2ccccc2c1)Nc1ccc(-c2ncn(-c3ccc(OC(F)(F)F)cc3)n2)cc1F [F13, (Z)-1-(2-Fluoro-4-(1-(4-(trifluoromethoxy)phenyl)-1H-1,2,4-triazol-3-yl)phenyl)-3-(3-(naphthalen-2-yl)-4-oxothiazolidin-2-ylidene)urea] | 50 to 100 | 50 to 100 | D (No activity noticed in this bioassay) |
| Cn1ccc2cc(N3C(=O)CS/C3=N\C(=O)Nc3ccc(-c4ncn(-c5ccc(C(F)(F)C(F)(F)F)cc5)n4)cc3F)ccc21 [F24, (Z)-1-(2-Fluoro-4-(1-(4-(perfluoroethyl)phenyl)-1H-1,2,4-triazol-3-yl)phenyl)-3-(3-(1-methyl-1H-indol-5-yl)-4-oxothiazolidin-2-ylidene)urea] | – | – | D (No activity noticed in this bioassay) |
| Cc1cc(-c2ncn(-c3ccc(OC(F)(F)C(F)(F)F)cc3)n2)ccc1NC(=O)/N=C1\SCC(=O)N1c1cccc2c1CCO2 [F25, (Z)-1-(3-(2,3-Dihydrobenzofuran-4-yl)-4-oxothiazolidin-2-ylidene)-3-(2-methyl-4-(1-(4-(perfluoroethoxy)phenyl)-1H-1,2,4-triazol-3-yl)phenyl)urea] | 50 to 100 | 50 to 100 | – |
| Cc1cc(-c2ncn(-c3ccc(OC(F)(F)C(F)(F)F)cc3)n2)ccc1NC(=O)/N=C1\SCC(=O)N1c1cccc2ccccc12 [F26, (Z)-1-(2-Methyl-4-(1-(4-(perfluoroethoxy)phenyl)-1H-1,2,4-triazol-3-yl)phenyl)-3-(3-(naphthalen-1-yl)-4-oxothiazolidin-2-ylidene)urea] | 50 to 100 | 50 to 100 | – |
| Cc1cc(-c2ncn(-c3ccc(OC(F)(F)C(F)(F)F)cc3)n2)ccc1NC(=O)/N=C1\SCC(=O)N1c1cccc2c1OCC2 [F28, (Z)-1-(3-(2,3-Dihydrobenzofuran-7-yl)-4-oxothiazolidin-2-ylidene)-3-(2-methyl-4-(1-(4-(perfluoroethoxy)phenyl)-1H-1,2,4-triazol-3-yl)phenyl)urea] | – | – | A (80-100) |
| Cn1ccc2c(N3C(=O)CS/C3=N\C(=O)Nc3ccc(-c4ncn(-c5ccc(C(F)(F)C(F)(F)F)cc5)n4)cc3F)cccc21 [F30, (Z)-1-(2-Fluoro-4-(1-(4-(perfluoroethyl)phenyl)-1H-1,2,4-triazol-3-yl)phenyl)-3-(3-(1-methyl-1H-indol-4-yl)-4-oxothiazolidin-2-ylidene)urea] | – | – | A (80-100) |
| Cc1cc(-c2ncn(-c3ccc(OC(F)(F)C(F)(F)F)cc3)n2)ccc1NC(=O)/N=C1\SCC(=O)N1c1ccc2c(ccn2C)c1 [F31, (Z)-1-(3-(1-Methyl-1H-indol-5-yl)-4-oxothiazolidin-2-ylidene)-3-(2-methyl-4-(1-(4-(perfluoroethoxy)phenyl)-1H-1,2,4-triazol-3-yl)phenyl)urea] | – | – | A (80-100) |
| O=C(/N=C1\SCC(=O)N1c1cccc2ncccc12)Nc1ccc(-c2ncn(-c3ccc(C(F)(F)C(F)(F)F)cc3)n2)cc1F [F34, (Z)-1-(2-Fluoro-4-(1-(4-(perfluoroethyl)phenyl)-1H-1,2,4-triazol-3-yl)phenyl)-3-(4-oxo-3-(quinolin-5-yl)thiazolidin-2-ylidene)urea] | – | – | A (80-100) |
